# From patent US7259186B2, “Salts of fenofibric acid and pharmaceutical formulations thereof” (Abbott Laboratories, priority 2002, dated 2007)
# Structures can show the parent of a compound that is named as a salt.
# Assay: Solid state photostability (ICH light exposure, HPLC recovery)
# Format: physicochemical
# Details: light 300–800 nm under ICH Guideline conditions; lack of degradation = recovery of 95% or greater
# Text: The terms “photostability” and “photostable” are used interchangeably herein and refer to a lack of degradation induced by exposure to light from 300–800 nm under the conditions described in the “Guideline for the Photostability Testing of New Drug Substances and Products” (International Conference on Harmonization. Federal Register 1997; […]:27115–22, which is herein incorporated by reference) (hereinafter referred to as the “Guidelines”). As used herein, the term of “lack of degradation” means a recovery of 95% or greater on average, preferably a recovery of 97% or greater on average and most preferably, a recovery of 99% or greater on average of the novel salts of the present invention after exposure to light from 300–800 nm under the conditions described in the Guidelines described above and pursuant to the assay described in Example 28.
# About 1–4 mg of each of fenofibric acid form I, fenofibric acid form II, choline, diethanolamine, tromethamine, sodium, calcium, ethanolamine, meglumine, L-lysine, and piperazine was weighed into separate 4 mL clear glass vials. […]
# The vials were sealed with PTFE lined caps, and divided into 2 groups with at least three replicates in each group. […] At the end of the light exposure, all samples and controls were removed and analyzed by HPLC using the conditions shown below in Table 6. […]
row,photostability (in words),SMILES
1,not photostable,"CC(C)(Oc1ccc(C(=O)c2ccc(Cl)cc2)cc1)C(=O)O [L-Lysine salt, reference compound]"
2,not photostable,"CC(C)(Oc1ccc(C(=O)c2ccc(Cl)cc2)cc1)C(=O)O [Meglumine salt, reference compound]"
